The record followed here is patent US9783573B2, “IAP antagonists” (BRISTOL-MYERS SQUIBB COMPANY, priority 2012, dated 2017).

One assay deals with His-BIR3 (241-356, XIAP) (Homo sapiens (Human), UniProt P98170). In words: XIAP-BIR3/SMAC Homogeneous Time Resolved Fluorescence (HTRF) Assay. In kind it is binding. To be noted: fluorescein labeled SMAC peptide. As for the experimental part:
B. XIAP-BIR3/SMAC Homogeneous Time Resolved Fluorescence (HTRF) Assay
(§1) Assays were performed in black, flat-bottom, 384-well plates.

Assay [1] deals with His-BIR2-3 (125-356, C202A/C213G, XIAP) (Homo sapiens (Human), UniProt P98170, C202A/C213G). In words: XIAP-BIR2-3 Dimeric SMAC Peptide Homogeneous Time Resolved Fluorescence (HTRF) Assay. It is filed as binding. As to conditions: fluorescein labeled dimeric SMAC peptide. As for the experimental part:
D. XIAP-BIR2-3 Dimeric SMAC Peptide Homogeneous Time Resolved Fluorescence (HTRF) Assay
as §1
(Time-resolved FRET reads energy transfer from a long-lived donor to a nearby acceptor.)

Structures are written as SMILES.

The term IC50 denotes the concentration needed to halve the response being measured. Lower therefore signals higher potency. `CN[C@@H](C)C(=O)N[C@H](C(=O)N1Cc2cc(NC(=O)c3cccc4c3ccn4C(=O)N[C@H]3C[C@@H](C(=O)N[C@@H]4CCCc5ccccc54)N(C(=O)[C@@H](NC(=O)[C@H](C)NC)C(C)(C)C)C3)ccc2C[C@H]1C(=O)N[C@@H]1CCCc2ccccc21)C(C)(C)C` [Example 54, N^4-((S)-2-((S)-3,3-Dimethyl-2-((S)-2-(methylamino)propanamido)butanoyl)-3-(((R)-1,2,3,4-tetrahydronaphthalen-1-yl)carbamoyl)-1,2,3,4-tetrahydroisoquinolin-7-yl)-N^1-((3S,5S)-1-((S)-3,3-dimethyl-2-((S)-2-(methylamino)propanamido)butanoyl)-5-(((R)-1,2,3,4-tetrahydronaphthalen-1-yl)carbamoyl)pyrrolidin-3-yl)-1H-indole-1,4-dicarboxamide]: the IC50 stood at 76 nM on His-BIR3 (241-356, XIAP) and 21 nM in assay [1].

Turning to `CN[C@@H](C)C(=O)N[C@H](C(=O)N1Cc2cc(NC(=O)c3ccc(C(=O)N[C@H]4C[C@@H](C(=O)N[C@@H]5CCCc6ccccc65)N(C(=O)[C@@H](NC(=O)[C@H](C)NC)C(C)(C)C)C4)cc3)ccc2C[C@H]1C(=O)N[C@@H](COC)c1ccccc1)C(C)(C)C` [Example 13, N^1-((S)-2-((S)-3,3-Dimethyl-2-((S)-2-(methylamino)propanamido)butanoyl)-3-(((R)-2-methoxy-1-phenylethyl)carbamoyl)-1,2,3,4-tetrahydroisoquinolin-7-yl)-N^4-((3S,5S)-1-((S)-3,3-dimethyl-2-((S)-2-(methylamino)propanamido)butanoyl)-5-(((R)-1,2,3,4-tetrahydronaphthalen-1-yl)carbamoyl)pyrrolidin-3-yl)terephthalamide], the concentration for half-maximal inhibition (IC50) on His-BIR3 (241-356, XIAP) stood at 12 nM; in assay [1], 11 nM.

Take `CN[C@@H](C)C(=O)N[C@H](C(=O)N1C[C@@H](NC(=O)c2ccc(C(=O)Nc3ccc4c(c3)CN(C(=O)[C@@H](NC(=O)[C@H](C)NC)C(C)(C)SCC(=O)O)[C@H](C(=O)N[C@@H]3CCCc5ccccc53)C4)cc2)C[C@H]1C(=O)N[C@@H]1CCCc2ccccc21)C(C)(C)C` [Example 57, 2-(((R)-4-((S)-7-(4-(((3S,5S)-1-((S)-3,3-Dimethyl-2-((S)-2-(methylamino)propanamido)butanoyl)-5-(((R)-1,2,3,4-tetrahydronaphthalen-1-yl)carbamoyl)pyrrolidin-3-yl)carbamoyl)benzamido)-3-(((R)-1,2,3,4-tetrahydronaphthalen-1-yl)carbamoyl)-3,4-dihydroisoquinolin-2(1H)-yl)-2-methyl-3-((S)-2-(methylamino)propanamido)-4-oxobutan-2-yl)thio)acetic acid]: the IC50 on His-BIR3 (241-356, XIAP) came to 10 nM; in assay [1], 6 nM.

For `CN[C@@H](C)C(=O)N[C@H](C(=O)N1C[C@@H](NC(=O)c2ccc(C(=O)Nc3ccc4c(c3)CN(C(=O)[C@@H](NC(=O)[C@H](C)NC)C(C)(C)SCc3ncc(C(C)(C)C)o3)[C@H](C(=O)N[C@@H]3CCCc5ccccc53)C4)cc2)C[C@H]1C(=O)N[C@@H]1CCCc2ccccc21)C(C)(C)C` [Example 68, N^1-((S)-2-((R)-3-(((5-(tert-Butyl)oxazol-2-yl)methyl)thio)-3-methyl-2-((S)-2-(methylamino)propanamido)butanoyl)-3-(((R)-1,2,3,4-tetrahydronaphthalen-1-yl)carbamoyl)-1,2,3,4-tetrahydroisoquinolin-7-yl)-N^4-((3S,5S)-1-((S)-3,3-dimethyl-2-((S)-2-(methylamino)propanamido)butanoyl)-5-(((R)-1,2,3,4-tetrahydronaphthalen-1-yl)carbamoyl)pyrrolidin-3-yl)terephthalamide], the 50% inhibitory concentration (IC50) is 260 nM against His-BIR3 (241-356, XIAP) and 160 nM in assay [1].

For `CN[C@@H](C)C(=O)N[C@H](C(=O)N1C[C@@H](NC(=O)c2ccc(C(=O)Nc3ccc4c(c3)CN(C(=O)[C@@H](NC(=O)[C@H](C)NC)C(C)(C)SCC(=O)N(C)C)[C@H](C(=O)N[C@@H]3CCCc5ccccc53)C4)cc2)C[C@H]1C(=O)N[C@@H]1CCCc2ccccc21)C(C)(C)C` [Example 64, N^1-((3S,5S)-1-((S)-3,3-Dimethyl-2-((S)-2-(methylamino)propanamido)butanoyl)-5-(((R)-1,2,3,4-tetrahydronaphthalen-1-yl)carbamoyl)pyrrolidin-3-yl)-N^4-((S)-2-((R)-3-((2-(dimethylamino)-2-oxoethyl)thio)-3-methyl-2-((S)-2-(methylamino)propanamido)butanoyl)-3-(((R)-1,2,3,4-tetrahydronaphthalen-1-yl)carbamoyl)-1,2,3,4-tetrahydroisoquinolin-7-yl)terephthalamide], the IC50 against His-BIR3 (241-356, XIAP) came out at 14 nM; in assay [1], 10 nM.

`CN[C@@H](C)C(=O)N[C@H](C(=O)N1Cc2cc(NC(=O)c3ccc4c(ccn4C(=O)N[C@H]4C[C@@H](C(=O)N[C@@H]5CCCc6ccccc65)N(C(=O)[C@@H](NC(=O)[C@H](C)NC)C(C)(C)C)C4)c3)ccc2C[C@H]1C(=O)N[C@@H]1CCCc2ccccc21)C(C)(C)C` [Example 49, N^5—((S)-2-((S)-3,3-Dimethyl-2-((S)-2-(methylamino)propanamido)butanoyl)-3-(((R)-1,2,3,4-tetrahydronaphthalen-1-yl)carbamoyl)-1,2,3,4-tetrahydroisoquinolin-7-yl)-N^1-((3S,5S)-1-((S)-3,3-dimethyl-2-((S)-2-(methylamino)propanamido)butanoyl)-5-(((R)-1,2,3,4-tetrahydronaphthalen-1-yl)carbamoyl)pyrrolidin-3-yl)-1H-indole-1,5-dicarboxamide]: the IC50 amounted to 51 nM against His-BIR3 (241-356, XIAP) and 22 nM in assay [1].

`CN[C@@H](C)C(=O)N[C@H](C(=O)N1C[C@@H](NC(=O)c2ccc(C(=O)Nc3ccc4c(c3)CN(C(=O)[C@@H](NC(=O)[C@H](C)NC)C(C)(C)SCC(=O)Nc3nccs3)[C@H](C(=O)N[C@@H]3CCCc5ccccc53)C4)cc2)C[C@H]1C(=O)N[C@@H]1CCCc2ccccc21)C(C)(C)C` [Example 60, N^1-((3S,5S)-1-((S)-3,3-Dimethyl-2-((S)-2-(methylamino)propanamido)butanoyl)-5-(((R)-1,2,3,4-tetrahydronaphthalen-1-yl)carbamoyl)pyrrolidin-3-yl)-N^4-((S)-2-((R)-3-methyl-2-((S)-2-(methylamino)propanamido)-3-((2-oxo-2-(thiazol-2-ylamino)ethyl)thio)butanoyl)-3-(((R)-1,2,3,4-tetrahydronaphthalen-1-yl)carbamoyl)-1,2,3,4-tetrahydroisoquinolin-7-yl)terephthalamide]: the IC50 against His-BIR3 (241-356, XIAP) came out at 42 nM; in assay [1] it was 22 nM.
